The text below walks through data of publication PMC6696179, “Structural Optimization and Structure–Activity Relationship of 4-Thiazolidinone Derivatives as Novel Inhibitors of Human Dihydroorotate Dehydrogenase” (Molecules, 2019).

One data set concerns the target T1, hDHODH (Homo sapiens, UniProt Q02127).
T1 construct: The plasmid pET-19b–hDHODH (Met30-Arg396) was transformed; inferred from the pET-19b vector and from purification on a chelating column with imidazole elution) (N); made in house; host or cells: E. coli BL21 (DE3)
In words: hDHODH enzyme inhibition assay (DCIP/UQ0, dihydroorotate-initiated).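 As to all read-outs here: recombinant hDHODH (Met30–Arg396) in HEPES pH 8.0 buffer with KCl and Triton X-100, reaction started by 500 µM dihydroorotate, inhibition from rate with inhibitor relative to uninhibited rate.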 Type of data set: biochemical. The conditions noted are these: for inhibition at 10 µM: compound at 10 µM, 10 nM purified hDHODH; for IC50: three independent tests, determined if inhibition at 10 μM was greater than 50%.

SMILES strings stand for the structures.

T1 sequence (Q02127 29-395 limits assumed): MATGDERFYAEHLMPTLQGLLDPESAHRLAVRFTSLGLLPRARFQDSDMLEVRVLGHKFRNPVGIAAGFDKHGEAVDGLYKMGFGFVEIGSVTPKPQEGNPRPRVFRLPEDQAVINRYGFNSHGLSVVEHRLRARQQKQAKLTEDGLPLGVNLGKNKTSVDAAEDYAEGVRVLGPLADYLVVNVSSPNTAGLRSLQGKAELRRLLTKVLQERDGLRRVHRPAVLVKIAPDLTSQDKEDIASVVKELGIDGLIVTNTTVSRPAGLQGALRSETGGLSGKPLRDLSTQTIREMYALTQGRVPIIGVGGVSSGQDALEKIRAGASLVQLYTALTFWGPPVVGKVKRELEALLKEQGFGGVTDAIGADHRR
Experimental for hDHODH: The purified hDHODH was diluted into a final concentration of 10 nM with the assay buffer contained 50 mM HEPES pH 8.0, 150 mM KCl, 0.1% Triton X-100. […] The dihydroorotate was added to a final concentration of 500 μM to initiate the reaction. […] Inhibition rate was calculated from (1-Vi/V0) × 100. For the determination of the IC50 values, eight to nine different concentrations were applied. Each inhibitor concentration point was tested in triplicate. IC50 values were calculated using the sigmoidal fitting option of the program Origin 8.0.

In general, inhibition refers to the drop in the measured response relative to a control, in per cent. Read a high inhibition as a strong effect. One may read the IC50 as the concentration that inhibits the measured activity by half. On hDHODH, `COC(=O)/C(C#N)=C1\SCC(=O)N1c1ccc(C(C)(C)C)cc1` [Compound 7] registered an inhibition at 10 µM of 79.1% and an IC50 of 1.75 µM.

At hDHODH, `COC(=O)/C(C#N)=C1\SCC(=O)N1c1ccc2ccccc2c1` [Compound 8] came in with an inhibition at 10 µM of 80.3% and an IC50 of 1.12 µM.

In the case of `COC(=O)/C(C#N)=C1\SCC(=O)N1c1ccc(-c2ccccc2)cc1` [Compound 9, Methyl (Z)-2-(3-([1,1’-biphenyl]-4-yl)-4-oxothiazolidin-2-ylidene)-2-cyanoacetate], at hDHODH, the inhibition at 10 µM was 73.8% and the IC50 turned out to be 1.32 µM.

In the case of `COC(=O)/C(C#N)=C1\SCC(=O)N1c1ccc(-c2ccccc2)cc1F` [Compound 10, Methyl (Z)-2-cyano-2-(3-(3-fluoro-[1,1’-biphenyl]-4-yl)-4-oxothiazolidin-2-ylidene)acetate], at hDHODH, testing at 10 µM gave an inhibition of 58.8% and it took 3.52 µM to reach half-maximal inhibition (IC50).

On hDHODH, `COC(=O)/C(C#N)=C1\SCC(=O)N1c1c(F)cc(-c2ccccc2)cc1F` [Compound 11, Methyl (Z)-2-cyano-2-(3-(3,5-difluoro-[1,1’-biphenyl]-4-yl)-4-oxothiazolidin-2-ylidene)acetate] showed an inhibition at 10 µM of 33.9% and an IC50 of over 10 µM.

Turning to `COC(=O)/C(C#N)=C1\SCC(=O)N1c1ccc(-c2ccccc2C)cc1F` [Compound 12, Methyl (Z)-2-cyano-2-(3-(3-fluoro-2’-methyl-[1,1’-biphenyl]-4-yl)-4-oxothiazolidin-2-ylidene)acetate], at hDHODH, at 10 µM the inhibition was 57.6% and half-maximal inhibition (IC50) required 6.04 µM.

For `COC(=O)/C(C#N)=C1\SCC(=O)N1c1ccc(-c2ccccc2OC)cc1F` [Compound 13, Methyl (Z)-2-cyano-2-(3-(3-fluoro-2’-methoxy-[1,1’-biphenyl]-4-yl)-4-oxothiazolidin-2-ylidene)acetate], on hDHODH, the inhibition at 10 µM is 54.7% and 6.64 µM corresponded to half-maximal inhibition (IC50).

Take `COC(=O)/C(C#N)=C1\SCC(=O)N1c1ccc(-c2cccc(OC)c2)cc1F` [Compound 14, Methyl (Z)-2-cyano-2-(3-(3-fluoro-3’-methoxy-[1,1’-biphenyl]-4-yl)-4-oxothiazolidin-2-ylidene)acetate]: on hDHODH, the inhibition at 10 µM worked out at 63.3% and the half-inhibitory concentration (IC50) came out at 5.42 µM.

As a reminder, the melting point is the temperature of the solid-liquid transition. For `COC(=O)/C(C#N)=C1\SCC(=O)N1c1ccc(-c2ccc(OC)cc2)cc1F` [Compound 15, Methyl (Z)-2-cyano-2-(3-(3-fluoro-4’-methoxy-[1,1’-biphenyl]-4-yl)-4-oxothiazolidin-2-ylidene)acetate], the melting point lay within 177.1 to 177.3 °C. At hDHODH, this compound returned an inhibition at 10 µM of 55.4% and an IC50 of 6.86 µM.

`COC(=O)/C(C#N)=C1\SCC(=O)N1c1ccc(-c2cccc(C#N)c2)cc1F` [Compound 16, Methyl (Z)-2-cyano-2-(3-(3’-cyano-3-fluoro-[1,1’-biphenyl]-4-yl)-4-oxothiazolidin-2-ylidene)acetate] had a melting point of 191.2 to 191.3 °C. On hDHODH, the inhibition at 10 µM amounted to 50.2% and the IC50 is 8.39 µM.

`COC(=O)/C(C#N)=C1\SCC(=O)N1c1ccc(-c2cccc([N+](=O)[O-])c2)cc1F` [Compound 17, Methyl (Z)-2-cyano-2-(3-(3-fluoro-3’-nitro-[1,1’-biphenyl]-4-yl)-4-oxothiazolidin-2-ylidene) acetate] had a melting point of 179.2 to 179.9 °C. At hDHODH, this compound had an inhibition at 10 µM of 50.7% and a half-maximal inhibitory concentration (IC50) of 4.35 µM.

Take `COC(=O)/C(C#N)=C1\SCC(=O)N1c1ccc(-c2cccc(C(F)(F)F)c2)cc1F` [Compound 18, Methyl (Z)-2-cyano-2-(3-(3-fluoro-3’-(trifluoromethyl)-[1,1’-biphenyl]-4-yl)-4-oxothiazolidin-2-ylidene) -acetate]: on hDHODH, testing at 10 µM gave an inhibition of 53.1% and it took 9.29 µM to reach half-maximal inhibition (IC50).

At hDHODH, `COC(=O)/C(C#N)=C1\SCC(=O)N1c1ccc(Oc2ccccc2)cc1` [Compound 19, Methyl (Z)-2-cyano-2-(4-oxo-3-(4-phenoxyphenyl)thiazolidin-2-ylidene)acetate] registered an inhibition at 10 µM of 52% and an IC50 of 9.43 µM.

As to `COC(=O)/C(C#N)=C1\SCC(=O)N1c1ccc(Oc2ccccc2OC)cc1` [Compound 20, Methyl (Z)-2-cyano-2-(3-(4-(2-methoxyphenoxy)phenyl)-4-oxothiazolidin-2-ylidene)acetate], the melting point lay in the range of 181.2 to 182.1 °C. On hDHODH, this compound gave an inhibition at 10 µM of 44.7% and a 50% inhibitory concentration (IC50) of over 10 µM.

`COC(=O)/C(C#N)=C1\SCC(=O)N1c1ccc(Oc2cccc(C(F)(F)F)c2)cc1` [Compound 21] displayed a melting point of 159.7 to 161.3 °C. On hDHODH, this compound returned an inhibition at 10 µM of 29.7% and an IC50 of over 10 µM.

Compound `COC(=O)/C(C#N)=C1\SCC(=O)N1c1ccc(Oc2ccc(C(C)(C)C)cc2)cc1` [Compound 22, Methyl (Z)-2-(3-(4-(4-(tert-butyl)phenoxy)phenyl)-4-oxothiazolidin-2-ylidene)-2-cyanoacetate] yielded a melting point of 212.9 to 213.9 °C. At hDHODH, this compound returned an inhibition at 10 µM of 18.1% and an IC50 of over 10 µM.

On to `COC(=O)/C(C#N)=C1\SCC(=O)N1c1cccc(Oc2ccccc2)c1` [Compound 23, Methyl (Z)-2-cyano-2-(4-oxo-3-(3-phenoxyphenyl)thiazolidin-2-ylidene)acetate], for which the melting point was in the range of 183.4 to 184.3 °C. Moreover, at hDHODH, the “hDHODH inhibitory activity in words” value is “inactive”, 10 µM produced 34.4% inhibition and the IC50 is over 10 µM.

At hDHODH, `COC(=O)/C(C#N)=C1\SCC(=O)N1c1ccc(OCc2ccccc2)cc1` [Compound 24, Methyl (Z)-2-(3-(4-(benzyloxy)phenyl)-4-oxothiazolidin-2-ylidene)-2-cyanoacetate] came in with an inhibition at 10 µM of 55.4% and an IC50 of 4.32 µM.

As for `COC(=O)/C(C#N)=C1\SCC(=O)N1c1ccc(OCc2ccccc2C(=O)O)cc1` [Compound 25, (Z)-2-((4-(2-(1-Cyano-2-methoxy-2-oxoethylidene)-4-oxothiazolidin-3-yl)phenoxy)methyl)benzoic acid], at hDHODH, the inhibition at 10 µM is 29.9% and the IC50 is over 10 µM.

The compound `COC(=O)/C(C#N)=C1\SCC(=O)N1c1ccc(OCc2cccc(C(=O)O)c2)cc1` [Compound 26, (Z)-3-((4-(2-(1-Cyano-2-methoxy-2-oxoethylidene)-4-oxothiazolidin-3-yl)phenoxy)methyl)benzoic acid] showed a melting point of 233.2 to 234.1 °C. At hDHODH, this compound returned an inhibition at 10 µM of 36.2% and a half-maximal inhibitory concentration (IC50) of over 10 µM.

On hDHODH, `COC(=O)/C(C#N)=C1\SCC(=O)N1c1ccc(C(=O)NC2CCCCC2)cc1` [Compound 27, Methyl (Z)-2-cyano-2-(3-(4-(cyclohexylcarbamoyl)phenyl)-4-oxothiazolidin-2-ylidene)acetate] yielded an inhibition at 10 µM of 41.7% and an IC50 of over 10 µM.

With `COC(=O)/C(C#N)=C1\SCC(=O)N1c1ccc(C(=O)Nc2ccccc2)cc1` [Compound 28, Methyl (Z)-2-cyano-2-(4-oxo-3-(4-(phenylcarbamoyl)phenyl)thiazolidin-2-ylidene)acetate], the melting point was in the range of 194.9 to 195.6 °C. Moreover, on hDHODH, the inhibition at 10 µM worked out at 69% and half-maximal inhibition (IC50) was put at 2.98 µM.

As for `COC(=O)/C(C#N)=C1\SCC(=O)N1c1ccc(C(=O)Nc2ccccc2C)cc1` [Compound 29, Methyl (Z)-2-cyano-2-(4-oxo-3-(4-(o-tolylcarbamoyl)phenyl)thiazolidin-2-ylidene)acetate], the melting point fell in the range of 274.1 to 275 °C. At hDHODH, the inhibition at 10 µM stood at 47% and the IC50 is over 10 µM.

Take `COC(=O)/C(C#N)=C1\SCC(=O)N1c1ccc(C(=O)Nc2ccc(F)cc2)cc1` [Compound 30, Methyl (Z)-2-cyano-2-(3-(4-((4-fluorophenyl)carbamoyl)phenyl)-4-oxothiazolidin-2-ylidene)acetate]: the melting point is 231.7 to 232.5 °C. At hDHODH, this compound came in with an inhibition at 10 µM of 71.3% and an IC50 of 3.01 µM.

In the case of `COC(=O)/C(C#N)=C1\SCC(=O)N1c1ccc(C(=O)Nc2ccc(F)c(C#N)c2)cc1` [Compound 31, Methyl (Z)-2-cyano-2-(3-(4-((3-cyano-4-fluorophenyl)carbamoyl)phenyl)-4-oxothiazolidin-2-ylidene)acetate], the melting point lay in the range of 264.2 to 265.1 °C. At hDHODH, this compound displayed an inhibition at 10 µM of 53.6% and an IC50 of 8.56 µM.

`COC(=O)/C(C#N)=C1\SCC(=O)N1c1ccc(C(=O)Nc2ccc(Cl)cc2)cc1` [Compound 32, Methyl (Z)-2-(3-(4-((4-chlorophenyl)carbamoyl)phenyl)-4-oxothiazolidin-2-ylidene)-2-cyanoacetate] had a melting point of 280.1 to 280.9 °C. On hDHODH, this compound had an inhibition at 10 µM of 52.7% and an IC50 of 7.5 µM.

In turn, `COC(=O)/C(C#N)=C1\SCC(=O)N1c1ccc(C(=O)Nc2ccc(Br)cc2)cc1` [Compound 33, Methyl (Z)-2-(3-(4-((4-bromophenyl)carbamoyl)phenyl)-4-oxothiazolidin-2-ylidene)-2-cyanoacetate] displayed a melting point of 306.2 to 307.1 °C. At hDHODH, this compound had an inhibition at 10 µM of 42% and an IC50 of over 10 µM.

`COC(=O)/C(C#N)=C1\SCC(=O)N1c1ccc(C(=O)Nc2ccc(I)cc2)cc1` [Compound 34, Methyl (Z)-2-cyano-2-(3-(4-((4-iodophenyl)carbamoyl)phenyl)-4-oxothiazolidin-2-ylidene)acetate]: the melting point lay in the range of 315.8 to 316.6 °C. On hDHODH, the inhibition at 10 µM is 38.1% and the 50% inhibitory concentration (IC50) was over 10 µM.

`COC(=O)/C(C#N)=C1\SCC(=O)N1c1ccc(C(=O)Nc2ccc(C(F)(F)F)cc2)cc1` [Compound 35, Methyl (Z)-2-cyano-2-(4-oxo-3-(4-((4-(trifluoromethyl)phenyl)carbamoyl)phenyl)thiazolidin-2-ylidene) acetate] yielded a melting point of 264.2 to 265.1 °C. Further, on hDHODH, the inhibition at 10 µM was 24.5% and the IC50 is over 10 µM.
